# Assay results taken from ChEMBL document CHEMBL3886805, “Pyrrolotriazinone derivatives as PI3K inhibitors” (2016).
# Target: T1, Phosphatidylinositol 4,5-bisphosphate 3-kinase catalytic subunit delta isoform (Homo sapiens, UniProt O00329)
# T1 sequence (O00329 whole entry): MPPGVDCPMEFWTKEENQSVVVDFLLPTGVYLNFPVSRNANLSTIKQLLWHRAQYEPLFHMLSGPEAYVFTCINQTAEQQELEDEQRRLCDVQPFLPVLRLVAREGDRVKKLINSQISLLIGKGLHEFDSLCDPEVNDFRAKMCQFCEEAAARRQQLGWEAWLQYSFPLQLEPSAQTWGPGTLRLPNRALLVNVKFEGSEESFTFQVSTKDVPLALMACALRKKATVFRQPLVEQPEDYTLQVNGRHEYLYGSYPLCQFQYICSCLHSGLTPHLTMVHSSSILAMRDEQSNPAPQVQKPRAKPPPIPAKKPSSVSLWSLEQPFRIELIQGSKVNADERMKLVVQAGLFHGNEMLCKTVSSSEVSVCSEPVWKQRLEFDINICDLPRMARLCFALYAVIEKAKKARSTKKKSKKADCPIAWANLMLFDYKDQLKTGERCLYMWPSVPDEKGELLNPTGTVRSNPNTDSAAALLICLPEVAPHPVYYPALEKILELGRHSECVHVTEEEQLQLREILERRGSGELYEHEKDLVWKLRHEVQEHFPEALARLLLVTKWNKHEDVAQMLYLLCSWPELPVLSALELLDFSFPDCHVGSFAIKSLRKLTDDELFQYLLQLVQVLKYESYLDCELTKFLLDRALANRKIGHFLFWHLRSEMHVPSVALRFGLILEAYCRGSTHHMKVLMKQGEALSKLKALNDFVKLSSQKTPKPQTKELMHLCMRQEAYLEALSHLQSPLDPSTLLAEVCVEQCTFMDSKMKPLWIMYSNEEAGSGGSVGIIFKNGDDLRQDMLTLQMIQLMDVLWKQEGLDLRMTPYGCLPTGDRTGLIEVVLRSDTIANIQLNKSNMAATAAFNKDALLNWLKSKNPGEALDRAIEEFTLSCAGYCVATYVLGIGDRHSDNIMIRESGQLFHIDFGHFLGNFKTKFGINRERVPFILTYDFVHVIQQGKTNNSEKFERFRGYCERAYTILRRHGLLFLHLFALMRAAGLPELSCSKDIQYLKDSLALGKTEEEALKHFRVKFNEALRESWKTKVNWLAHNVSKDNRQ
# Assay: [PIP2] was used at its Km.
row,SMILES,IC50
1,COc1ncc(-c2c(N)ncnc2N[C@@H](C)c2nn3ccc(Br)c3c(=O)n2-c2ccccc2)cc1NS(C)(=O)=O,25 nM
2,Cc1ccn2nc([C@H](C)Nc3ncnc(N)c3C(=O)Nc3cc(C(N)=O)ccc3O)n(-c3ccccc3)c(=O)c12,3 nM

# The next lines start with the values.
row,IC50,SMILES
1,3 nM,Cc1ccn2nc([C@H](C)Nc3ncnc(N)c3C(=O)Nc3cccc(O)c3)n(-c3ccccc3)c(=O)c12
2,0.4 nM,COc1ccc(S(=O)(=O)n2ncc3ccc(-c4c(N)ncnc4N[C@@H](C)c4nn5ccc(C)c5c(=O)n4-c4ccccc4)cc32)cc1
3,2 nM,C[C@H](Nc1ncnc(N)c1C#N)c1nn2ccc(Sc3ccc(O)c(F)c3)c2c(=O)n1-c1ccccc1
4,1 nM,COc1ncc(-c2c(N)ncnc2N[C@@H](C)c2nn3ccc(C)c3c(=O)n2-c2ccccc2)cc1NS(=O)(=O)C(F)(F)F
